Data published in patent publication US20250154129A1, “CRYSTALLINE PHARMACEUTICALLY ACCEPTABLE SALT AND POLYMORPHIC FORM OF THE […] CYCLASE INHIBITOR VAROGLUTAMSTAT” (VIVORYON THERAPEUTICS N.V., priority 2023, published 2025).
Each block holds one molecule with its values, some of them ahead of it.

Key:
[1] = tested on: mice doubly transgenic for human APP and human glutaminyl cyclase; conditions: chronic oral dosing; cited from earlier work
[2] = pKa of Varoglutamstat (weak base); format: physicochemical
[3] = Solubility in water of salt forms from 1 g scale salt screening in isopropanol; format: physicochemical; conditions: 20° C.
Source text: (§1) For such salts with a clear stoichiometry, their preparation was then repeated on 1 g scale (free base) in isopropanol with the acid slowly being added followed by seeding (seeds as obtained from the screening experiment). The solids were then further characterized with regard to: • Handling of crystals, • Crystal habit (microscopy, macroscopic): presence and shape of crystals, • Crystallinity (quality of crystals, XRPD), • Thermal analysis (DSC and TGA), • Hygroscopicity (DVS), and • Solubility in water.

[4] = Solubility screening of the Varoglutamstat free base (HPLC of mother liquor); format: physicochemical
Experimental: 75 mg of solid were transferred into a glass vial, a magnetic stir bar and 1.5 ml of solvent were added. […] The vials were then cooled to 20° C. and stirred for another 30 min. When completely dissolved, additional solid material was added, and the vial equilibrated for at least 3 hours at 20° C.
The mother liquor was sampled and analyzed for content via HPLC versus an external standard solution (1-point calibration).
• Column: PHENOMENEX LUNA C18, 50×4.6 mm, 3 μm, • Mobile phase A: 0.05% TFA in water, • Mobile phase B: 0.05% TFA in acetonitrile. • Gradient: 10% to 90% B in 10 min, 2 min hold, re-equilibrate to initial gradient composition. • Flow: 1.0 mL/min. • Detection: UV at 225 nm.

[5] = Hygroscopicity (DVS) of salt forms from Example 3.2; format: physicochemical; conditions: 1 g scale, isopropanol
Source text: as §1
VTI-SA by TA Instruments with Isotherm Software for data acquisition and handling, glass sample holder and de-ionised water for vapour production.

[6] = Crystallinity by XRPD of salt forms from Example 3.2; format: physicochemical; conditions: 1 g scale, isopropanol
Source text: as §1
• Angle: 2θ=2° to 2θ=40° • Sampling width 0.02 • Measurement time: 75 minutes.
Solid was positioned on sample holder, prepared with grease and flattened with a disc of glass.

[7] = Solubility screen of the hydrochloride salt in single solvents (HPLC of mother liquor); format: physicochemical; conditions: 20° C.
Experimental: As a first step, a solubility screen of the hydrochloride salt (obtained from the 1 g scale experiments in Example 3.2) was performed in single solvents as listed in Table 5. This was done in order to identify the most suitable solvents for the process development.
The resulting suspensions were equilibrated for at least 4 hours and the mother liquors sampled for solubility determination by HPLC (see “Description of analytical procedures used in the Examples of the invention” for method details).
• Column: ZORBAX BONUS RP 150 mm×4.6 mm; 3.5 um • Eluent A: 0.05% HCOOH in H2O • Eluent B: 0.05% HCOOH in ACN • Flow 1.00 ml/min • Gradient: 2 min 100% Eluent A, linear increase of Eluent B from 2 to 20 min from 0 to 100% • Detection: UV at 225 nm

CCL2/CCR2 axis = conditions: three-week repeated administration, 30 and 100 mg/kg, twice daily; dose-dependent; cited from earlier work
Aβ soluble protofibrils = conditions: adult patients with early Alzheimer disease; cited from earlier work
[8] = DMSO, solution obtained: solubility identical or higher than 50 mg/mL
[9] = MeOH, solution obtained: solubility identical or higher than 50 mg/mL
[10] = Water, solution obtained: solubility identical or higher than 50 mg/mL

pKa [2]: 4.55 | Solubility in water ([3]; procedure of Example 4.1, listed as free base): 890 µM | solubility in organic solvents ([4]; methyl-isobutyl-ketone, dichloro-methane, 20° C.): good | solubility ([4]; organic solvent or mixture, thermodynamic from solid, acetone, tetrahydrofuran, methyl-tetrahydrofuran, methyl-ethylketone, 2-pentanone, acetonitrile, dimethylsulfoxide, methanol, ethanol, isopropanol, n-propanol, n-butanol, 20° C., read-out: excellent solubility in organic solvents): ≥ 30 mg/mL | solubility in organic solvents ([4]; tert-butyl-methyl-ketone, ethyl-acetate, isopropyl-acetate, heptane, toluene, 20° C.): poorly soluble or insoluble | solubility at 30 min ([4]; thermodynamic from solid, water, equilibrated at 20° C.): < 1 mg/mL | Solubility in water ([4]; water, forms a sticky/oily suspension): almost insoluble
Molecule: CCCOc1ccc([C@H]2CNC(=O)N2c2ccc3[nH]cnc3c2)cc1 [Varoglutamstat free base, (S)-1-(1H-benzo[d]imidazol-5-yl)-5-(4-propoxyphenyl)imidazolidin-2-one]
brain pyroglutamate Aβ [1]: reduce | recall in the Morris water maze test of spatial memory [1]: improve

hygroscopicity [5]: high | crystallinity (by XRPD) [6]: low
Molecule: Oxalate

ML free base ([7]; ACN): 0.1 mg/mL | calculated HCl ([7]; ACN): 0.1 mg/mL | ML free base ([7]; Acetone): 0.1 mg/mL | calculated HCl ([7]; Acetone): 0.1 mg/mL | ML free base [7, 8]: 51.7 mg/mL | calculated HCl [7, 8]: 57.3 mg/mL | ML free base ([7]; EtOAc): 0.0 mg/mL | calculated HCl ([7]; EtOAc): 0.0 mg/mL | ML free base ([7]; EtOH): 41.3 mg/mL | calculated HCl ([7]; EtOH): 45.8 mg/mL | ML free base ([7]; Heptane): 0.0 mg/mL | calculated HCl ([7]; Heptane): 0.0 mg/mL | ML free base ([7]; IPA): 3.6 mg/mL | calculated HCl ([7]; IPA): 4.0 mg/mL | ML free base ([7]; IPrOAc): 0.0 mg/mL | calculated HCl ([7]; IPrOAc): 0.0 mg/mL | ML free base ([7]; MEK): 0.0 mg/mL | calculated HCl ([7]; MEK): 0.0 mg/mL | ML free base ([7]; MIBK): 0.1 mg/mL | calculated HCl ([7]; MIBK): 0.1 mg/mL | ML free base ([7]; Me-THF): 0.0 mg/mL | calculated HCl ([7]; Me-THF): 0.0 mg/mL | ML free base [7, 9]: 47.5 mg/mL | calculated HCl [7, 9]: 52.6 mg/mL | ML free base ([7]; TBME): 0.0 mg/mL | calculated HCl ([7]; TBME): 0.0 mg/mL | ML free base ([7]; THF): 0.0 mg/mL | calculated HCl ([7]; THF): 0.0 mg/mL | ML free base ([7]; Toluene): 0.1 mg/mL | calculated HCl ([7]; Toluene): 0.1 mg/mL | ML free base [7, 10]: 52.0 mg/mL | calculated HCl [7, 10]: 57.6 mg/mL | ML free base ([7]; nBuOH): 3.9 mg/mL | calculated HCl ([7]; nBuOH): 4.4 mg/mL | ML free base ([7]; nPrOH): 10.4 mg/mL | calculated HCl ([7]; nPrOH): 11.5 mg/mL
Molecule: CCCOc1ccc([C@H]2CNC(=O)N2c2ccc3[nH]cnc3c2)cc1.Cl [Varoglutamstat Hydrochloride, (S)-1-(1H-benzo[d]imidazol-5-yl)-5-(4-propoxyphenyl) imidazolidin-2-one hydrochloride]

Solubility in water ([3]; procedure of Example 4.1): 3600 µM
Molecule: CCCOc1ccc([C@H]2CNC(=O)N2c2ccc3[nH]cnc3c2)cc1 [TosOH]

hygroscopicity [5]: high | crystallinity (by XRPD) [6]: mediocre
Molecule: Fumarate

Molecule: CCCOc1ccc(C2C(=O)NC(=O)N2c2ccc3[nH]cnc3c2)cc1 (stereo not drawn) [PQ529]
serum and urine CCL2 (CCL2/CCR2 axis): significantly reduced | urinary protein excretion (CCL2/CCR2 axis): significantly reduced

B1: Leqembi: humanized IgG1 monoclonal antibody which binds to Aβ soluble protofibrils with high affinity (antibody, chains of the INN, looked up, V domains shown)
VH: EVQLVESGGGLVQPGGSLRLSCSASGFTFSSFGMHWVRQAPGKGLEWVAYISSGSSTIYYGDTVKGRFTISRDNAKNSLFLQMSSLRAEDTAVYYCAREGGYYYGRSYYTMDYWGQGTTVTVSS
VL: DVVMTQSPLSLPVTPGAPASISCRSSQSIVHSNGNTYLEWYLQKPGQSPKLLIYKVSNRFSGVPDRFSGSGSGTDFTLRISRVEAEDVGIYYCFQGSHVPPTFGPGTKLEIK
brain amyloid (Aβ soluble protofibrils): reduce | cognitive decline (Aβ soluble protofibrils): modestly slow
